# Assay results from article PMC5384453, “A multi-functional PEGylated gold(III) compound: potent anti-cancer properties and self-assembly into nanostructures for drug co-delivery” (Chemical Science, 2016).
# Key:
# A2780cis = assay: In vitro cytotoxicity, MTT assay; format: cell-based, human; details: for IC50: A2780cis, MTT assay, 72 h incubation; for Resistance found in A2780cis: IC50 of A2780cis cells / IC50 of A2780 cells; for Toxicity toward cancer cells compared to that toward CCD-19Lu cells, A2780cis: IC50 of CCD-19Lu cells / IC50 of A2780cis; for Toxicity toward cancer cells compared to that toward NCM460 cells, A2780cis: IC50 of NCM460 cells / IC50 of A2780cis
# Procedure: (§1) In vitro cytotoxicity assays. HeLa, NCI-H460, HCT116, A2780, A2780cis and
# (§2) cells), respectively, were seeded in 96-well plates for 24 h. The cells were then treated with a serial concentration of gold(III) complexes and incubated at 37 °C under a 5% CO2 atmosphere for 72 h. For nanostructures of 1, 2 and NC1, they were dissolved in
# (§3) cisplatin were dissolved in culture medium-DMSO solution mixture (99:1, v/v).
# (§4) After incubation for 72 h, MTT in PBS solution (5 mg/mL, 10 μL) was added to each well. The plates were incubated at 37 °C under a 5% CO2 atmosphere for another 4 h, and the cells were lysed by the addition of SDS solution (10%, w/w) with 0.01 M HCl (100 μL). After incubation in dark at 37 °C overnight, the cell viability after treatment was determined by a microtitre plate reader monitoring at the absorbance at 590 nm,
# MIHA = assay: In vitro cytotoxicity, MTT assay; format: cell-based; details: MTT assay, 72 h incubation, read-out: IC50
# Procedure: as §1, §2, §3, §4
# HCT116 = assay: In vitro cytotoxicity, MTT assay; format: cell-based, human; details: for IC50: HCT116, MTT assay, 72 h incubation; for Toxicity toward cancer cells compared to that toward CCD-19Lu cells, HCT-116: IC50 of CCD-19Lu cells / IC50 of HCT-116; for Toxicity toward cancer cells compared to that toward MIHA cells, HCT-116: IC50 of MIHA cells / IC50 of HCT-116; for Toxicity toward cancer cells compared to that toward NCM460 cells, HCT-116: IC50 of NCM460 cells / IC50 of HCT-116
# Procedure: as §1, §2, §3, §4
# HeLa = assay: In vitro cytotoxicity, MTT assay; format: cell-based, human; details: for IC50: HeLa, MTT assay, 72 h incubation, read-out: IC50; for Toxicity toward cancer cells compared to that toward CCD-19Lu cells, HeLa: IC50 of CCD-19Lu cells / IC50 of HeLa; for Toxicity toward cancer cells compared to that toward MIHA cells, HeLa: IC50 of MIHA cells / IC50 of HeLa; for Toxicity toward cancer cells compared to that toward NCM460 cells, HeLa: IC50 of NCM460 cells / IC50 of HeLa
# Procedure: as §1, §2, §3, §4
# A2780adr = assay: In vitro cytotoxicity, MTT assay; format: cell-based, human; details: for IC50: A2780adr, MTT assay, 72 h incubation, read-out: IC50; for Resistance found in A2780adr: IC50 of A2780adr cells / IC50 of A2780 cells; for Toxicity toward cancer cells compared to that toward CCD-19Lu cells, A2780adr: IC50 of CCD-19Lu cells / IC50 of A2780adr; for Toxicity toward cancer cells compared to that toward MIHA cells, A2780adr: IC50 of MIHA cells / IC50 of A2780adr; for Toxicity toward cancer cells compared to that toward NCM460 cells, A2780adr: IC50 of NCM460 cells / IC50 of A2780adr
# Procedure: as §1, §2, §3, §4
# NCM460 = assay: In vitro cytotoxicity, MTT assay; format: cell-based, human; details: 72 h incubation
# Procedure: as §1, §2, §3, §4
# CCD-19Lu = assay: In vitro cytotoxicity, MTT assay; format: cell-based, human; details: 72 h incubation
# Procedure: as §1, §2, §3, §4
# NCI-H460 = assay: In vitro cytotoxicity, MTT assay; format: cell-based, human; details: for Toxicity toward cancer cells compared to that toward CCD-19Lu cells, NCI-H460: IC50 of CCD-19Lu cells / IC50 of NCI-H460; for Toxicity toward cancer cells compared to that toward MIHA cells, NCI-H460: IC50 of MIHA cells / IC50 of NCI-H460; for Toxicity toward cancer cells compared to that toward NCM460 cells, NCI-H460: IC50 of NCM460 cells / IC50 of NCI-H460; for IC50: NCI-H460, MTT assay, 72 h incubation
# Procedure: as §1, §2, §3, §4
# A2780 = assay: In vitro cytotoxicity, MTT assay; format: cell-based, human; details: for IC50: A2780, MTT assay, 72 h incubation; for Toxicity toward cancer cells compared to that toward CCD-19Lu cells, A2780: IC50 of CCD-19Lu cells / IC50 of A2780; for Toxicity toward cancer cells compared to that toward MIHA cells, A2780: IC50 of MIHA cells / IC50 of A2780; for Toxicity toward cancer cells compared to that toward NCM460 cells, A2780: IC50 of NCM460 cells / IC50 of A2780
# Procedure: as §1, §2, §3, §4
# HCT116 cells = assay: Hydrolysis in live cells, UPLC-QTOF-MS of cell lysates; format: in vitro ADME, human; details: 2 μM, 24 h
# Procedure: Hydrolysis of the gold(III) complexes in live cells was examined by ultra-performance liquid chromatography coupled quadrupole-time-of-flight mass spectrometry (UPLC-QTOF-MS). Colon cancer cells (HCT116) were treated with 1, 2 and 3 (2 μM) for 24 h, harvested and lysed in an acetonitrile–water solution mixture (3 : 1, v/v) prior to UPLC-QTOF-MS analysis. […] Therefore, the peak is attributable to the major metabolite of 1 formed in HCT116 cells. […] This should be attributable to the higher stability of the amide bond versus the ester bond in vitro. […]
# which reflected the amount of blue formazan formed. IC50 values were then determined by CompuSyn S6 from three independent measurements.
# Study on the release of hydrolyzed product from 1 and 2 in aqueous buffer solutions by ICP-MS. The nanostructures of gold(III) complex was dissolved in PBS solution (pH 7.4; 1 mg/mL) or sodium acetate buffer solution (pH 4.0; 1 mg/mL) and was dialyzed against 1 L of the buffer solution at 37 °C using semipermeable minidialysis tubes (molecular weight cut-off = 1,000 Da; GE Healthcare). At a predetermined time, an aliquot of solution was removed and dissolved in HNO3/HCl solution mixture (9:1, v/v; volume of aliquot: volume of acid mixture = 1:3). The solution mixture was heated at 65 °C with shaking overnight, and the gold content was determined by ICP-MS from three independent aliquots.
# Study on the hydrolysis of 1 and 2 in aqueous buffer solutions by 1H NMR. […]
# The flow rate was 0.4 mL/min and the injection volume was 2 µL. The UPLC-QTOF-MS chromatograms of 1, 3, 4 and solvent control in acetonitrile were also recorded for the interpretation of UPLC-QTOF-MS chromatograms of the cell lysate. […]
# Au1a (2 µM; with 1 vol% DMSO). […] An aliquot of the cell suspension was subjected to Bio-rad protein assay with a microtitre plate reader at the absorbance at 595 nm, using bovine serum albumin as the protein standard. […] The solution mixture was heated at 65 °C with shaking overnight, and the gold content was determined by ICP-MS. […]
compound,measurement,setting,value
"C1=Cc2nc1c(-c1ccccc1)c1ccc([n-]1)c(-c1ccccc1)c1nc(c(-c3ccccc3)c3ccc([n-]3)c2-c2ccccc2)C=C1.[Au+3].[Cl-] [Au1a, [Au(TPP)]Cl, reference compound]",IC50,A2780cis,0.18 ± 0.01 µM
same,Resistance found in A2780cis,A2780cis,1.49
same,"Toxicity toward cancer cells compared to that toward CCD-19Lu cells, A2780cis",A2780cis,1.3
same,"Toxicity toward cancer cells compared to that toward NCM460 cells, A2780cis",A2780cis,0.4
same,IC50,MIHA,0.4 ± 0.07 µM
same,IC50,HCT116,0.09 ± 0.02 µM
same,"Toxicity toward cancer cells compared to that toward CCD-19Lu cells, HCT-116",HCT116,2.6
same,"Toxicity toward cancer cells compared to that toward MIHA cells, HCT-116",HCT116,4.4
same,"Toxicity toward cancer cells compared to that toward NCM460 cells, HCT-116",HCT116,0.8
same,IC50,HeLa,0.66 ± 0.04 µM
same,"Toxicity toward cancer cells compared to that toward CCD-19Lu cells, HeLa",HeLa,0.3
same,"Toxicity toward cancer cells compared to that toward MIHA cells, HeLa",HeLa,0.6
same,"Toxicity toward cancer cells compared to that toward NCM460 cells, HeLa",HeLa,0.1
same,IC50,A2780adr,1.13 ± 0.15 µM
same,Resistance found in A2780adr,A2780adr,9.09
same,"Toxicity toward cancer cells compared to that toward CCD-19Lu cells, A2780adr",A2780adr,0.2
same,"Toxicity toward cancer cells compared to that toward MIHA cells, A2780adr",A2780adr,0.4
same,"Toxicity toward cancer cells compared to that toward NCM460 cells, A2780adr",A2780adr,0.06
same,IC50,NCM460,0.07 ± 0.01 µM
same,IC50,CCD-19Lu,0.23 ± 0.04 µM
same,"Toxicity toward cancer cells compared to that toward CCD-19Lu cells, NCI-H460",NCI-H460,1.0
same,"Toxicity toward cancer cells compared to that toward MIHA cells, NCI-H460",NCI-H460,1.7
same,"Toxicity toward cancer cells compared to that toward NCM460 cells, NCI-H460",NCI-H460,0.3
same,IC50,NCI-H460,0.23 ± 0.01 µM
same,IC50,A2780,0.12 ± 0.02 µM
same,"Toxicity toward cancer cells compared to that toward CCD-19Lu cells, A2780",A2780,1.9
same,"Toxicity toward cancer cells compared to that toward MIHA cells, A2780",A2780,3.3
same,"Toxicity toward cancer cells compared to that toward NCM460 cells, A2780",A2780,0.6
"COC(=O)c1ccc(C2=C3C=CC(=N3)C(c3ccccc3)=c3ccc4[n]3[Au+][n]3c(ccc32)C(c2ccccc2)=C2C=CC(=N2)C=4c2ccccc2)cc1.[Cl-] [Compound 3, [Au(TPP–COOCH3)]^+]",IC50,A2780cis,0.19 ± 0.03 µM
same,Resistance found in A2780cis,A2780cis,1.0
same,"Toxicity toward cancer cells compared to that toward CCD-19Lu cells, A2780cis",A2780cis,3.8
same,"Toxicity toward cancer cells compared to that toward NCM460 cells, A2780cis",A2780cis,0.7
same,IC50,MIHA,0.74 ± 0.09 µM
same,IC50,HCT116,0.09 ± 0.01 µM
same,"Toxicity toward cancer cells compared to that toward CCD-19Lu cells, HCT-116",HCT116,8.1
same,"Toxicity toward cancer cells compared to that toward MIHA cells, HCT-116",HCT116,7.7
same,"Toxicity toward cancer cells compared to that toward NCM460 cells, HCT-116",HCT116,1.4
same,hydrolysis / release of [Au(TPP–COOH)]+ in cells,HCT116 cells,hydrolysis of the ester bond was also observed
same,IC50,HeLa,0.82 ± 0.12 µM
same,"Toxicity toward cancer cells compared to that toward CCD-19Lu cells, HeLa",HeLa,0.9
same,"Toxicity toward cancer cells compared to that toward MIHA cells, HeLa",HeLa,0.9
same,"Toxicity toward cancer cells compared to that toward NCM460 cells, HeLa",HeLa,0.2
same,IC50,A2780adr,0.65 ± 0.06 µM
same,Resistance found in A2780adr,A2780adr,3.23
same,"Toxicity toward cancer cells compared to that toward CCD-19Lu cells, A2780adr",A2780adr,1.1
same,"Toxicity toward cancer cells compared to that toward MIHA cells, A2780adr",A2780adr,1.1
same,"Toxicity toward cancer cells compared to that toward NCM460 cells, A2780adr",A2780adr,0.2
same,IC50,NCM460,0.13 ± 0.01 µM
same,IC50,CCD-19Lu,0.73 ± 0.04 µM
same,"Toxicity toward cancer cells compared to that toward CCD-19Lu cells, NCI-H460",NCI-H460,6.6
same,"Toxicity toward cancer cells compared to that toward MIHA cells, NCI-H460",NCI-H460,7.0
same,"Toxicity toward cancer cells compared to that toward NCM460 cells, NCI-H460",NCI-H460,1.3
same,IC50,NCI-H460,0.11 ± 0.01 µM
same,IC50,A2780,0.23 ± 0.02 µM
same,"Toxicity toward cancer cells compared to that toward CCD-19Lu cells, A2780",A2780,3.2
same,"Toxicity toward cancer cells compared to that toward NCM460 cells, A2780",A2780,0.7
[Au(TPP–CONH–PEG5000–OCH3)]Cl [Compound 2],IC50,A2780cis,47.2 ± 8.62 µM
same,Resistance found in A2780cis,A2780cis,3.57
same,"Toxicity toward cancer cells compared to that toward MIHA cells, A2780cis",A2780cis; IC50 of MIHA cells / IC50 of A2780cis,2.4
same,"Toxicity toward cancer cells compared to that toward NCM460 cells, A2780cis",A2780cis,1.5
same,IC50,MIHA,115 ± 17.1 µM
same,IC50,HCT116,8.24 ± 0.22 µM
same,"Toxicity toward cancer cells compared to that toward MIHA cells, HCT-116",HCT116,14.0
same,"Toxicity toward cancer cells compared to that toward NCM460 cells, HCT-116",HCT116,8.6
same,hydrolysis / release of [Au(TPP–COOH)]+ in cells,HCT116 cells,no release of [Au(TPP–COOH)]^+ can be found
same,IC50,HeLa,46.5 ± 4.4 µM
same,"Toxicity toward cancer cells compared to that toward MIHA cells, HeLa",HeLa,2.5
same,"Toxicity toward cancer cells compared to that toward NCM460 cells, HeLa",HeLa,1.5
same,IC50,A2780adr,> 120 µM
same,Resistance found in A2780adr,A2780adr,> 9.09
same,"Toxicity toward cancer cells compared to that toward MIHA cells, A2780adr",A2780adr,< 1.0
same,"Toxicity toward cancer cells compared to that toward NCM460 cells, A2780adr",A2780adr,< 0.6
same,IC50,NCM460,71 ± 6.42 µM
same,IC50,CCD-19Lu,> 100 µM
same,"Toxicity toward cancer cells compared to that toward MIHA cells, NCI-H460",NCI-H460,4.7
same,"Toxicity toward cancer cells compared to that toward NCM460 cells, NCI-H460",NCI-H460,2.9
same,IC50,NCI-H460,24.7 ± 4.62 µM
same,IC50,A2780,13.4 ± 0.18 µM
same,"Toxicity toward cancer cells compared to that toward MIHA cells, A2780",A2780,8.6
same,"Toxicity toward cancer cells compared to that toward NCM460 cells, A2780",A2780,5.3
